Values quoted from earlier work, collected in patent US20240101584A1, “TARGETED DELIVERY OF 1,2,4,5 TETRAOXANE COMPOUNDS AND THEIR USES” (Westlake University, priority 2021, published 2024).

Key:
Hela cells = conditions: reported compound in the literature; read-out: overall IC50, Hela cells, reported compound; cited from earlier work
HEK293 cells = conditions: reported compound in the literature; read-out: overall IC50, HEK293 cells, reported compound; cited from earlier work
HepG2 cells = conditions: reported compound in the literature; read-out: overall IC50, HepG2 cells, reported compound; cited from earlier work
HL-60 cells = conditions: cited from earlier work; for IC50: reported data of known compounds
PMBC = conditions: reported compound in the literature; cited from earlier work
MDA-MB-231 cells = conditions: reported data of known compounds; cited from earlier work
HCT116 cells = conditions: reported data of known compounds; cited from earlier work

| Structure (SMILES) | IC50 (Hela cells) [µM] | IC50 (HEK293 cells) [µM] | IC50 (HepG2 cells) [µM] | best selectivity index (PMBC versus HL-60) (HL-60 cells; reported compound in the literature) | IC50 (HL-60 cells) [µM] | IC50 (PMBC) [µM] | IC50 (MDA-MB-231 cells) [µM] | IC50 (HCT116 cells) [µM] |
| --- | --- | --- | --- | --- | --- | --- | --- | --- |
| CN1CCN(C2CCN(C(=O)CC3CCC4(CC3)OOC3(OO4)C4CC5CC(C4)CC3C5)CC2)CC1 (stereo not drawn) [RKA182] | > 12 | > 12 | > 12 | 4 | 11.6 ± 0.4 | 46.6 ± 0.7 | – | – |
| CC(C)(N)CNC(=O)C[C@H]1CC[C@]2(CC1)OO[C@]1(O2)C2CC3CC(C2)CC1C3 [OZ277] | – | – | – | – | 53.8 | – | 35.2 | 68.3 |
